According to US12338220B2, “Antiviral pyrazolopiridinone compounds” (Novartis AG, priority 2019, dated 2025):
Read-outs that look alike come from different tables or passages of the source.

What was measured:
CMV-polymerase = CMV-polymerase (Human cytomegalovirus (strain AD169) (HHV-5) (Human herpesvirus 5), UniProt P08546); test: biochemical
CMV = test: microbe, parasite or virus in culture; type: cell-based; details: Human betaherpesvirus 5, 72 h, read-out: CMV-Luc Cellular EC50, NN-NHDF cells, MOI 1, 72 hrs
[1] = read-out: CMV-polymerase Biochemical IC50
[2] = CMV-polymerase Biochemical IC50

| Structure (SMILES) | IC50 (CMV-polymerase; [1]) | EC50 (CMV) | IC50 (CMV-polymerase; [2]) |
| --- | --- | --- | --- |
| C[C@H](N)C(=O)NCC(C)(C)S(=O)(=O)C1(CN2CCc3c(C(=O)NCc4ccc(C#N)cc4)nn(C)c3C2=O)CC1 [Example 76, (S)-6-((1-((1-(2-Aminopropanamido)-2-methylpropan-2-yl)sulfonyl)cyclopropyl)methyl)-N-(4-cyanobenzyl)-1-methyl-7-oxo-4,5,6,7-tetrahydro-1H-pyrazolo[3,4-c]pyridine-3-carboxamide] | 10 nM | 84 nM |  |
| Cn1nc(C(=O)NCc2ccc(C#N)cc2)c2c1C(=O)N(CC1(S(=O)(=O)C(C)(C)CNC(=O)C(C)(C)N)CC1)CC2 [Example 77, 6-((1-((1-(2-Amino-2-methylpropanamido)-2-methylpropan-2-yl)sulfonyl)cyclopropyl)methyl)-N-(4-cyanobenzyl)-1-methyl-7-oxo-4,5,6,7-tetrahydro-1H-pyrazolo[3,4-c]pyridine-3-carboxamide] | 12 nM | 115 nM |  |
| CN(C)CC(=O)NCC(C)(C)S(=O)(=O)C1(CN2CCc3c(C(=O)NCc4ccc(C#N)cc4)nn(C)c3C2=O)CC1 [Example 78, N-(4-Cyanobenzyl)-6-((1-((1-(2-(dimethylamino)acetamido)-2-methylpropan-2-yl)sulfonyl)cyclopropyl)methyl)-1-methyl-7-oxo-4,5,6,7-tetrahydro-1H-pyrazolo[3,4-c]pyridine-3-carboxamide] | 26 nM | 112 nM |  |
| Cn1nc(C(=O)NCc2ccc(C#N)cc2)c2c1C(=O)N(CC1(S(=O)(=O)C(C)(C)COC(F)(F)CO)CC1)CC2 [Example 84, N-(4-cyanobenzyl)-6-((1-((1-(1,1-difluoro-2-hydroxyethoxy)-2-methylpropan-2-yl)sulfonyl)cyclopropyl)methyl)-1-methyl-7-oxo-4,5,6,7-tetrahydro-1H-pyrazolo[3,4-c]pyridine-3-carboxamide] |  | 51 nM | 4 nM |
| Cn1nc(C(=O)NCc2ccc(C#N)cc2)c2c1C(=O)N(CC1(S(=O)(=O)C(C)(C)COC(F)(F)CN)CC1)CC2 [Example 85, 6-((1-((1-(2-Amino-1,1-difluoroethoxy)-2-methylpropan-2-yl)sulfonyl)cyclopropyl)methyl)-N-(4-cyanobenzyl)-1-methyl-7-oxo-4,5,6,7-tetrahydro-1H-pyrazolo[3,4-c]pyridine-3-carboxamide] |  | 50 nM | 3 nM |
| Cn1nc(C(=O)NCc2ccc(C#N)cc2)c2c1C(=O)N(CC1(S(=O)(=O)C(C)(C)COCC(C)(C)O)CC1)CC2 [Example 86, N-(4-Cyanobenzyl)-6-((1-((1-(2-hydroxy-2-methylpropoxy)-2-methylpropan-2-yl)sulfonyl)cyclopropyl)methyl)-1-methyl-7-oxo-4,5,6,7-tetrahydro-1H-pyrazolo[3,4-c]pyridine-3-carboxamide] |  | 145 nM | 18 nM |
| Cn1nc(C(=O)NCc2ccc(Cl)cc2)c2c1C(=O)N(CC1(S(=O)(=O)C(C)(C)COCCO)CC1)CC2 [Example 88, N-(4-Chlorobenzyl)-6-((1-((1-(2-hydroxyethoxy)-2-methylpropan-2-yl)sulfonyl)cyclopropyl)methyl)-1-methyl-7-oxo-4,5,6,7-tetrahydro-1H-pyrazolo[3,4-c]pyridine-3-carboxamide] |  | 36 nM | 2 nM |
| Cn1nc(C(=O)NCc2ccc(C#N)cc2)c2c1C(=O)N(CC1(S(=O)(=O)C3(COCCN)CC3)CC1)CC2 [Example 96, 6-((1-((1-((2-aminoethoxy)methyl)cyclopropyl)sulfonyl)cyclopropyl)methyl)-N-(4-cyanobenzyl)-1-methyl-7-oxo-4,5,6,7-tetrahydro-1H-pyrazolo[3,4-c]pyridine-3-carboxamide] | 1 nM | 26 nM |  |
| CNCCOCC(C)(C)S(=O)(=O)C1(CN2CCc3c(C(=O)NCc4ccc(C#N)cc4)nn(C)c3C2=O)CC1 [Example 101, N-(4-Cyanobenzyl)-1-methyl-6-((1-((2-methyl-1-(2-(methylamino)ethoxy)propan-2-yl)sulfonyl)cyclopropyl)methyl)-7-oxo-4,5,6,7-tetrahydro-1H-pyrazolo[3,4-c]pyridine-3-carboxamide] |  | 9 nM | 1 nM |
| Cn1nc(C(=O)NCc2ccc(C#N)cc2)c2c1C(=O)N(CC1(S(=O)(=O)C(C)(C)COC3CNC3)CC1)CC2 [Example 102, 6-((1-((1-(Azetidin-3-yloxy)-2-methylpropan-2-yl)sulfonyl)cyclopropyl)methyl)-N-(4-cyanobenzyl)-1-methyl-7-oxo-4,5,6,7-tetrahydro-1H-pyrazolo[3,4-c]pyridine-3-carboxamide] |  | 26 nM | 5 nM |
| Cn1nc(C(=O)NCc2ccc(C#N)cc2)c2c1C(=O)N(CC1(S(=O)(=O)C(C)(C)COCC(C)(C)N)CC1)CC2 [Example 103, 6-((1-((1-(2-Amino-2-methylpropoxy)-2-methylpropan-2-yl)sulfonyl)cyclopropyl)methyl)-N-(4-cyanobenzyl)-1-methyl-7-oxo-4,5,6,7-tetrahydro-1H-pyrazolo[3,4-c]pyridine-3-carboxamide] |  | 41 nM | 9 nM |
| CN(C)CCOCC(C)(C)S(=O)(=O)C1(CN2CCc3c(C(=O)NCc4ccc(C#N)cc4)nn(C)c3C2=O)CC1 [Example 104, N-(4-Cyanobenzyl)-6-((1-((1-(2-(dimethylamino)ethoxy)-2-methylpropan-2-yl)sulfonyl)cyclopropyl)methyl)-1-methyl-7-oxo-4,5,6,7-tetrahydro-1H-pyrazolo[3,4-c]pyridine-3-carboxamide] | 3 nM | 21 nM |  |
| CNC(=O)C(C)(C)S(=O)(=O)C1(CN2CCc3c(C(=O)NCc4ccc(Cl)cc4)nn(C)c3C2=O)CC1 [Example 110, N-(4-Chlorobenzyl)-1-methyl-6-((1-((2-methyl-1-(methylamino)-1-oxopropan-2-yl)sulfonyl)cyclopropyl)methyl)-7-oxo-4,5,6,7-tetrahydro-1H-pyrazolo[3,4-c]pyridine-3-carboxamide] |  | 218 nM | 5 nM |
| Cn1nc(C(=O)NCc2ccc(C#N)cc2)c2c1C(=O)N(CC1(S(=O)(=O)C3(CCO)CC3)CC1)CC2 [Example 117, N-(4-Cyanobenzyl)-6-((1-((1-(2-hydroxyethyl)cyclopropyl)sulfonyl)cyclopropyl)methyl)-1-methyl-7-oxo-4,5,6,7-tetrahydro-1H-pyrazolo[3,4-c]pyridine-3-carboxamide] | 4 nM | 35 nM |  |
| Cn1nc(C(=O)NCc2ccc(C#N)cc2)c2c1C(=O)N(CC1(S(=O)(=O)CC(C)(C)O)CC1)CC2 [Example 118, N-(4-Cyanobenzyl)-6-((1-((2-hydroxy-2-methylpropyl)sulfonyl)cyclopropyl)methyl)-1-methyl-7-oxo-4,5,6,7-tetrahydro-1H-pyrazolo[3,4-c]pyridine-3-carboxamide] | 19 nM | 327 nM |  |
| Cn1nc(C(=O)NCc2ccc(C#N)cc2)c2c1C(=O)N(CC1(S(=O)(=O)[C@H]3C[C@@H](O)C3)CC1)CC2 [Example 119, N-(4-Cyanobenzyl)-6-((1-(((1s,3s)-3-hydroxycyclobutyl)sulfonyl)cyclopropyl)methyl)-1-methyl-7-oxo-4,5,6,7-tetrahydro-1H-pyrazolo[3,4-c]pyridine-3-carboxamide] |  | 156 nM | 4 nM |
| Cn1nc(C(=O)NCc2ccc(C#N)cc2)c2c1C(=O)N(CC1(S(=O)(=O)[C@H]3C[C@H](O)C3)CC1)CC2 [Example 120, N-(4-Cyanobenzyl)-6-((1-(((1r,3r)-3-hydroxycyclobutyl)sulfonyl)cyclopropyl)methyl)-1-methyl-7-oxo-4,5,6,7-tetrahydro-1H-pyrazolo[3,4-c]pyridine-3-carboxamide] |  | 151 nM | 3 nM |
| Cn1nc(C(=O)NCc2ccc(Cl)cc2)c2c1C(=O)N(CC1(S(N)(=O)=O)CC1)CC2 [Example 121, N-(4-chlorobenzyl)-1-methyl-7-oxo-6-((1-sulfamoylcyclopropyl)methyl)-4,5,6,7-tetrahydro-1H-pyrazolo[3,4-c]pyridine-3-carboxamide] |  | 156 nM | 8 nM |
| CN(C)/C=N/S(=O)(=O)C1(CN2CCc3c(C(=O)NCc4ccc(Cl)cc4)nn(C)c3C2=O)CC1 [Example 122, (E)-N-(4-chlorobenzyl)-6-((1-(N-((dimethylamino)methylene)sulfamoyl)cyclopropyl)methyl)-1-methyl-7-oxo-4,5,6,7-tetrahydro-1H-pyrazolo[3,4-c]pyridine-3-carboxamide] | 7 nM | 298 nM |  |
| Cn1nc(C(=O)NCc2ccc(C#N)cc2)c2c1C(=O)N(CC1(S(=O)(=O)N3CCOCC3)CC1)CC2 [Example 124, N-(4-Cyanobenzyl)-1-methyl-6-((1-(morpholinosulfonyl)cyclopropyl)methyl)-7-oxo-4,5,6,7-tetrahydro-1H-pyrazolo[3,4-c]pyridine-3-carboxamide] | 6 nM | 156 nM |  |
| Cn1nc(C(=O)NCc2ccc(C#N)cc2)c2c1C(=O)N(CC1(S(=O)(=O)N3CCC(O)CC3)CC1)CC2 [Example 125, N-(4-Cyanobenzyl)-6-((1-((4-hydroxypiperidin-1-yl)sulfonyl)cyclopropyl)methyl)-1-methyl-7-oxo-4,5,6,7-tetrahydro-1H-pyrazolo[3,4-c]pyridine-3-carboxamide] | 3 nM | 196 nM |  |
| Cn1nc(C(=O)NCc2ccc(C#N)cc2)c2c1C(=O)N(CC1(S(=O)(=O)N3CC[C@@H](O)C3)CC1)CC2 [Example 126, (R)-N-(4-Cyanobenzyl)-6-((1-((3-hydroxypyrrolidin-1-yl)sulfonyl)cyclopropyl)methyl)-1-methyl-7-oxo-4,5,6,7-tetrahydro-1H-pyrazolo[3,4-c]pyridine-3-carboxamide] | 4 nM | 118 nM |  |
| Cn1nc(C(=O)NCc2ccc(C#N)cc2)c2c1C(=O)N(CC1(S(=O)(=O)N3CC[C@H](O)C3)CC1)CC2 [Example 127, (S)-N-(4-Cyanobenzyl)-6-((1-((3-hydroxypyrrolidin-1-yl)sulfonyl)cyclopropyl)methyl)-1-methyl-7-oxo-4,5,6,7-tetrahydro-1H-pyrazolo[3,4-c]pyridine-3-carboxamide] | 4 nM | 122 nM |  |
